# In patent publication US7807713B2, “Pan-antagonists for the androgen receptor and androgen associated with anti-androgen withdrawal” (University of Delaware, priority 2006, dated 2010):
# Changes are numbered by the printed parent chain. Read-outs that look alike come from different tables or passages of the source.
# How the values were obtained:
# Assay type in all cases: cell-based
# hAR(W741C) = target: T1, hAR(W741C) (Homo sapiens, UniProt P10275, W742C); test: Transcription assay (ARE-luciferase reporter, CV-1 cells), mutant androgen receptor W741C
# T1 construct: expressed in transfected cells; host or cells: CV-1
# T1 sequence (P10275 1-920 W742C): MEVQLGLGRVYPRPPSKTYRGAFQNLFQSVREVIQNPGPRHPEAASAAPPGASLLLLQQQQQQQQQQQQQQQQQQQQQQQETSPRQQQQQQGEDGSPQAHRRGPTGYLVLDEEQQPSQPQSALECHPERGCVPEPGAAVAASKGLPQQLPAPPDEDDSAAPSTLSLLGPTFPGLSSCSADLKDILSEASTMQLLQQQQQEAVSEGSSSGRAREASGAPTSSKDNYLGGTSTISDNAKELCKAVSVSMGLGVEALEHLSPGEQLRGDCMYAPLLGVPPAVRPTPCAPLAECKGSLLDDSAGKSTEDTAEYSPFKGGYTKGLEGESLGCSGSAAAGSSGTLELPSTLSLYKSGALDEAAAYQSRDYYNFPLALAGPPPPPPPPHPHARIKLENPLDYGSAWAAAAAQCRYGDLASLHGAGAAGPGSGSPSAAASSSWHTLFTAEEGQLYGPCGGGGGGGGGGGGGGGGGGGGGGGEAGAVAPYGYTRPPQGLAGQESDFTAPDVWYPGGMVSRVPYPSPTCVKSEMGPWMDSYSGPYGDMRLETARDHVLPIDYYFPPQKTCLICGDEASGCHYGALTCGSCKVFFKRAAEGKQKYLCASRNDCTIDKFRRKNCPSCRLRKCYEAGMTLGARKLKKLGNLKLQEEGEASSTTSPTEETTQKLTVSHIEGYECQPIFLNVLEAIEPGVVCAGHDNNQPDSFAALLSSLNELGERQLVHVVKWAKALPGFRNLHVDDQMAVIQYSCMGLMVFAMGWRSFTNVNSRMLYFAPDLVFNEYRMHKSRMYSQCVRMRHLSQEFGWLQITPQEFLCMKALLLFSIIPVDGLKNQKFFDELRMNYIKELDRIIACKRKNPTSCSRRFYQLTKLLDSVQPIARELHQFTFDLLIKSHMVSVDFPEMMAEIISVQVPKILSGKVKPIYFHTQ
# Description: (§1) Twenty-four hours prior to transfection, CV-1 cells were seeded at a density of 45,000 cells per well in 24-well cell culture plates and grown in phenol red free Dulbecco's Modified Eagle Medium (DMEM) supplemented with 10% cosmic calf serum (CCS). ARE-luciferase reporter and Renilla-Luc as the internal standard and a […] expression vector encoding the wild-type androgen receptor or mutant androgen receptor were transfected with Lipofectamine (Invitrogen) following manufacturer's protocol. Five hours after transfection, media was added containing the appropriate concentrations of ligands. The cells were allowed to incubate for 38 hours before harvesting by passive lysis buffer. Cell extracts were immediately assayed using the Dual Luciferase Assay (Promega).
# hAR(T877A) = target: T2, hAR(T877A) (Homo sapiens, UniProt P10275, T878A); test: Transcription assay (ARE-luciferase reporter, CV-1 cells), mutant androgen receptor T877A
# T2 construct: expressed in transfected cells; host or cells: CV-1
# T2 sequence (P10275 1-920 T878A): T1 sequence (P10275 1-920 W742C) with C742W, T878A
# Description: as §1
# hAR(wt) = target: T3, hAR(wt) (Homo sapiens, UniProt P10275); test: Transcription assay (ARE-luciferase reporter, CV-1 cells), wild-type androgen receptor
# T3 construct: expressed in transfected cells; host or cells: CV-1
# T3 sequence (P10275 1-920): T1 sequence (P10275 1-920 W742C) with C742W
# Description: as §1
# LNCaP cells = test: Cell proliferation assay (CyQuant), R1881 induced; settings: 8 day ligand treatment ± R1881, FIG. 9
# Text: FIG. 9. LNCaP cell proliferation (CyQuant) after 8 day ligand treatment±R1881. Relative Fluorescence±SEM. (R1881±ligand; P<0.05, one-way ANOVA).
# Further evidence that formulae such as PLM1 can act to limit androgen dependent proliferation of prostate cells was obtained by cell proliferation assays as determined using CyQuant® assays, according to manufacturer's instructions (invitrogen).
compound,measurement,setting,value
3-(2-phenylphenylsulfonyl)-N-(4-cyano-3-(trifluoromethyl)phenyl)-2-hydroxy-2-methylpropanamide [PLM4],EC50,"hAR(W741C); half maximal activation of reporter gene expression (agonism), '—' = no effect, read-out: hAR(W741C) EC50",33 ± 9.8 nM
"CC(O)(CS(=O)(=O)c1ccccc1Cc1ccccc1O)C(=O)Nc1ccc(C#N)c(C(F)(F)F)c1 (stereo not drawn) [PAN11, N-(4-cyano-3-(trifluoromethyl)phenyl)-2-hydroxy-3-(2-(2-hydroxybenzyl)phenylsulfonyl)-2-methylpropanamide]",EC50,hAR(T877A),1.9 nM
"CC(O)(CS(=O)(=O)c1ccccc1Cc1cccc(O)c1)C(=O)Nc1ccc(C#N)c(C(F)(F)F)c1 (stereo not drawn) [PAN21, N-(4-cyano-3-(trifluoromethyl)phenyl)-2-hydroxy-3-(2-(3-hydroxybenzyl)phenylsulfonyl)-2-methylpropanamide]",EC50,hAR(wt),1.8 nM
"CC(O)(CS(=O)(=O)c1cccc2ccccc12)C(=O)Nc1ccc(C#N)c(C(F)(F)F)c1 (stereo not drawn) [PLM1, N-(4-cyano-3-(trifluoromethyl)phenyl)-2-hydroxy-2-methyl-3-(naphthalen-1-ylsulfonyl)propanamide]",inhibiting androgen (R1881) induced proliferation of LNCaP cells,LNCaP cells,at least as potent as biclutamide itself
"CC(O)(CS(=O)(=O)c1cccc(Cc2ccccc2)c1)C(=O)Nc1ccc(C#N)c(C(F)(F)F)c1 (stereo not drawn) [PLM3, 3-(3-benzylphenylsulfonyl)-N-(4-cyano-3-(trifluoromethyl)phenyl)-2-hydroxy-2-methylpropanamide]",EC50,hAR(W741C),630 ± 67 nM
"CC(O)(CS(=O)(=O)c1ccc(Br)c2ccccc12)C(=O)Nc1ccc(C#N)c(C(F)(F)F)c1 (stereo not drawn) [PLM9, 3-(1-bromonaphthalen-4-ylsulfonyl)-N-(4-cyano-3-(trifluoromethyl)phenyl)-2-hydroxy-2-methylpropanamide]",EC50,hAR(T877A),426 ± 72 nM
